How the values were obtained:
FGFR3(h) = FGFR3(h) (Homo sapiens, UniProt P22607); test: Eurofins kinase assay
Rsk1(r) = Rsk1(r) (Rattus norvegicus, UniProt Q63531); test: Eurofins kinase assay
Bmx(h) = Bmx(h) (Homo sapiens, UniProt P51813); test: Eurofins kinase assay
PKCη(h) = PKCη(h) (Homo sapiens, UniProt P24723); test: Eurofins kinase assay
CSK(h) = CSK(h) (Homo sapiens, UniProt P41240); test: Eurofins kinase assay
[1] = Single oral dose toxicity study; assay type: in vivo, Sprague Dawley rats; details: 500 mg/kg oral
CDK6/cyclinD3(h) = CDK6/cyclinD3(h) (Homo sapiens, UniProt Q00534); test: Eurofins kinase assay
SW620 (KRAS G12V) = test: Cell proliferation assay (CellTiter-Glo); details: Homo sapiens, SW-620, 72 h
Procedure: To assess cell viability, the CellTiter-Glo Luminescent Cell Viability Assay Reagent (Promega, Fitchburg, WI, USA) was added to each well. The assay measured ATP levels as an indicator of cell viability. All data points were normalized to the control samples treated with dimethyl sulfoxide when determining IC50 values. Statistical calculations and data analysis, including IC50 determination, were performed using GraphPad Prism software.

IL-10 = test: Western blot of IL-10; assay type: in vivo, mouse; details: normalized to β-actin
CSF1R = biological target: T1, CSF1R (Mus musculus, UniProt P09581); test: Western blot in BMDMs, ligand-dependent phosphorylation; assay type: cell-based; details: 2 h treatment, CSF1 100 ng/mL 15 min
T1 construct: endogenous in cells; host or cells: mouse bone-marrow-derived macrophages (BMDMs)
Procedure: (§1) HCT116, LS513, SW620, HUVECs, and HT29 cell lines were purchased from the Korean Cell Line Bank (Seoul, Korea). All cell lines were maintained in RPMI or DMEM (Gibco Inc., Billings, MT, USA) supplemented with 10% FBS (Gibco, USA) and penicillin–streptomycin in an incubator at 37 °C and 5% CO2. Bone marrow cells were isolated from the femur and tibia of mice using a single-pass bone marrow aspiration. Cells were cultured in RPMI medium supplemented with 10% FBS and 100 ng/mL CSF1 (Peprotech, Rocky Hill, NJ, USA) for 7 days to differentiate into bone-marrow-derived macrophages (BMDMs).
(§2) In 6-well plates, LS513 cells were seeded and allowed to adhere and proliferate for 24 h. […] After treatment, the cells were harvested using RIPA lysis buffer to extract cellular proteins. The cell lysates were subjected to Western blot analysis. […] The cell lysates were analyzed by Western blot using specific antibodies, such as p-CSF1R (Cell Signaling, #14591S), CSF1R (Cell Signaling, #67455S), p-TIE2 (Cell Signaling, #4221S), and TIE2 (Santa Cruz Biotechnology, Dallas, TX, USA, #sc-293414), to detect and analyze the respective proteins.

TIE2 = biological target: T2, TIE2 (Mus musculus, UniProt Q02858); test: as above; assay type: cell-based; details: 2 h treatment, angiopoietin 2 100 ng/mL 15 min
T2 construct: endogenous in cells; host or cells: mouse bone-marrow-derived macrophages (BMDMs)
Procedure: as §1, §2

CDK1/cyclinB(h) = CDK1/cyclinB(h) (Homo sapiens, UniProt P06493); test: Eurofins kinase assay
CDK7/cyclinH/MAT1(h) = CDK7/cyclinH/MAT1(h) (Homo sapiens, UniProt P50613); test: Eurofins kinase assay
PKBβ(h) = PKBβ(h) (Homo sapiens, UniProt P31751); test: Eurofins kinase assay
ARAF = biological target: T3, ARAF (Homo sapiens, UniProt P10398); test: Eurofins kinase assay
T3 sequence (P10398 1-606): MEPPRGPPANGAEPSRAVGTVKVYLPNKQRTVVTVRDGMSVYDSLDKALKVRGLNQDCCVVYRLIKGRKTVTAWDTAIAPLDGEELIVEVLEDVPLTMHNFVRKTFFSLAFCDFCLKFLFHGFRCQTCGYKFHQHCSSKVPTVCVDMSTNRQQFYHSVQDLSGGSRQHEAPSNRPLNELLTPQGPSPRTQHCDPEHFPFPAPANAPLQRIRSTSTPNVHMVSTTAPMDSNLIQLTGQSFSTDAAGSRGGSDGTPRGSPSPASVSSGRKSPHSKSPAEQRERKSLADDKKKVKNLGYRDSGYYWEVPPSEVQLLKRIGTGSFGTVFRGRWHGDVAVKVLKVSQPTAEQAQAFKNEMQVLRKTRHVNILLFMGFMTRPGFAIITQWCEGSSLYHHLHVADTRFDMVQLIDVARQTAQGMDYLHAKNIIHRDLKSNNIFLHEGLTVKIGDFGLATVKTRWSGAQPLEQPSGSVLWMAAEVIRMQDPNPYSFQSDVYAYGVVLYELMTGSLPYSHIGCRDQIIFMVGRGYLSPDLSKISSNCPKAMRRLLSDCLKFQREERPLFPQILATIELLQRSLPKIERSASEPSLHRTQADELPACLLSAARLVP

EphB4(h) = EphB4(h) (Homo sapiens, UniProt P54760); test: Eurofins kinase assay
CDK2/cyclinA(h) = CDK2/cyclinA(h) (Homo sapiens, UniProt P24941); test: Eurofins kinase assay
PDK1(h) = PDK1(h) (Homo sapiens, UniProt O15530); test: Eurofins kinase assay

Bmx(h), sequence (P51813 whole entry): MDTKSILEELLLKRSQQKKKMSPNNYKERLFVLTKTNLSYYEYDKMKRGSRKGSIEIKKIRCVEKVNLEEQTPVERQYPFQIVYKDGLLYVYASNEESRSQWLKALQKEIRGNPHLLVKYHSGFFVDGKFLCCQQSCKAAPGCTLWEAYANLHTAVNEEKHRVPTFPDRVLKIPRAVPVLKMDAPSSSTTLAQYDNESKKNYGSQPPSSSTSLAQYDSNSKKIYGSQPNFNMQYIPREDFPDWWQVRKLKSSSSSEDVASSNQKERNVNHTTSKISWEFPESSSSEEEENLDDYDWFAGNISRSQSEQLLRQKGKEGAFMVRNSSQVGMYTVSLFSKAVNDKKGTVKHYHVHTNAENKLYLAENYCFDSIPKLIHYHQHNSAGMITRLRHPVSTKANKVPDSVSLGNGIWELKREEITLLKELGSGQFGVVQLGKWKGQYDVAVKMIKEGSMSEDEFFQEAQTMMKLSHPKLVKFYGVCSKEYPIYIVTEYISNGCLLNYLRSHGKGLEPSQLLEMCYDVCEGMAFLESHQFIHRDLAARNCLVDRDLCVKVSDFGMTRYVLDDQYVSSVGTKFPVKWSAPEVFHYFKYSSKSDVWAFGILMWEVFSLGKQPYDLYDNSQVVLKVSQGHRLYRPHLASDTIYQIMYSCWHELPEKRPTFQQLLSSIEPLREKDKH
PKCη(h), sequence (P24723 whole entry): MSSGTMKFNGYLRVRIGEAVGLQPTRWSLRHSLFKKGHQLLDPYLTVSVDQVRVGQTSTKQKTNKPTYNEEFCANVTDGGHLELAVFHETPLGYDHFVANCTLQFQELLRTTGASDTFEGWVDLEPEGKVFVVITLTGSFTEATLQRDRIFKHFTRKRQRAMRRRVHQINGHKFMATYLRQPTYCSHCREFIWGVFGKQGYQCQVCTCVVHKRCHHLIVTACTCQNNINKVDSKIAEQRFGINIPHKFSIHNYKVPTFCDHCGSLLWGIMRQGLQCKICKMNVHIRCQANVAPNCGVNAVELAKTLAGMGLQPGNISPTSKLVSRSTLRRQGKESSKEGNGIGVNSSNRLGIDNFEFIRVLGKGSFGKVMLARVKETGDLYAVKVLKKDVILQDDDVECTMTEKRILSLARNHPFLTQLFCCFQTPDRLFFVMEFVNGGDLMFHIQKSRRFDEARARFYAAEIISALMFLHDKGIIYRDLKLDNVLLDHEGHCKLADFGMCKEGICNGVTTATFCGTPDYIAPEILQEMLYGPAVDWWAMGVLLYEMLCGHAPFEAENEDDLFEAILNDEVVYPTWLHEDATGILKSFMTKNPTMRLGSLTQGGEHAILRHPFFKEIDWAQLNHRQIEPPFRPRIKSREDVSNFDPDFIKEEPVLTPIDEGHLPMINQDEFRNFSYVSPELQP
PKBβ(h), sequence (P31751 whole entry): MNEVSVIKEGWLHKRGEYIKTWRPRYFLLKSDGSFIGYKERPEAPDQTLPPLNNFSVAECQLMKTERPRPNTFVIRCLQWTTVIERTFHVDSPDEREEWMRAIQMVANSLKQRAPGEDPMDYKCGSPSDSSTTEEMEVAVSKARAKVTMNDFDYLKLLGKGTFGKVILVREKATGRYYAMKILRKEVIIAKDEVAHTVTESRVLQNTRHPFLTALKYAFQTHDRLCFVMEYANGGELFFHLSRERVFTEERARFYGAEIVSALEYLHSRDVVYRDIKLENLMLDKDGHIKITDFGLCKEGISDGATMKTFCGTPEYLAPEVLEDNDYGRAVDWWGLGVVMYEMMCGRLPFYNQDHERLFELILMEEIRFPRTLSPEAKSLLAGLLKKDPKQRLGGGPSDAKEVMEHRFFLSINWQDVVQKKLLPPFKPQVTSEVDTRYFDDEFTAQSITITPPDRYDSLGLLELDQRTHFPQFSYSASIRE
CDK7/cyclinH/MAT1(h), sequence (P50613 whole entry): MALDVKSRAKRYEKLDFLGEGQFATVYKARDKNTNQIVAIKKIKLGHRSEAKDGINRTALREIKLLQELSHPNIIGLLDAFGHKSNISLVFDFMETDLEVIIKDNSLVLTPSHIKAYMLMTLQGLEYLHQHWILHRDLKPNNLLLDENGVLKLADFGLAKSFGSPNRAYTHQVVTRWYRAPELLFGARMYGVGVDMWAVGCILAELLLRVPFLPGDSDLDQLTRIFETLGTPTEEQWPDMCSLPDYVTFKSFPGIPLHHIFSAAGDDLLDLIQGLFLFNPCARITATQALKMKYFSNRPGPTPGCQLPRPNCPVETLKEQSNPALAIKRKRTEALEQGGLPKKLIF
CDK7/cyclinH/MAT1(h), sequence (P51946 whole entry partner): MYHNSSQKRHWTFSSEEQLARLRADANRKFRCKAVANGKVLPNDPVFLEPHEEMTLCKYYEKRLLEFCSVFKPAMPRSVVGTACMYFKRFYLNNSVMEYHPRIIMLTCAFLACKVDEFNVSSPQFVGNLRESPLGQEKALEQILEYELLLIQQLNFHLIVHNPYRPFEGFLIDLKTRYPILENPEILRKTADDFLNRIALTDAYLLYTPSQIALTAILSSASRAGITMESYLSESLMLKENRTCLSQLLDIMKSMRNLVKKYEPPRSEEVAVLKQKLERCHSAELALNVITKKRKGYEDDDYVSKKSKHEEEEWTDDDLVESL
CDK7/cyclinH/MAT1(h), sequence (P51948 whole entry partner): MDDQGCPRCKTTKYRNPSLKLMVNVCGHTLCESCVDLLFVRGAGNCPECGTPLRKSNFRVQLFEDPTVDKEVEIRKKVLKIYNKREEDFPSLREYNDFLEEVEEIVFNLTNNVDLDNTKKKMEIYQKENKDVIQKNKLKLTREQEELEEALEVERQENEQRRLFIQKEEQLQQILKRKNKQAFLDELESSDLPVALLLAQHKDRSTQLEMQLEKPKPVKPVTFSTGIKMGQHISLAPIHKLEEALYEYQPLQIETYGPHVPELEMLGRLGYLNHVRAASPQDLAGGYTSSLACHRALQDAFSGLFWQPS
FGFR3(h), sequence (P22607 23-806): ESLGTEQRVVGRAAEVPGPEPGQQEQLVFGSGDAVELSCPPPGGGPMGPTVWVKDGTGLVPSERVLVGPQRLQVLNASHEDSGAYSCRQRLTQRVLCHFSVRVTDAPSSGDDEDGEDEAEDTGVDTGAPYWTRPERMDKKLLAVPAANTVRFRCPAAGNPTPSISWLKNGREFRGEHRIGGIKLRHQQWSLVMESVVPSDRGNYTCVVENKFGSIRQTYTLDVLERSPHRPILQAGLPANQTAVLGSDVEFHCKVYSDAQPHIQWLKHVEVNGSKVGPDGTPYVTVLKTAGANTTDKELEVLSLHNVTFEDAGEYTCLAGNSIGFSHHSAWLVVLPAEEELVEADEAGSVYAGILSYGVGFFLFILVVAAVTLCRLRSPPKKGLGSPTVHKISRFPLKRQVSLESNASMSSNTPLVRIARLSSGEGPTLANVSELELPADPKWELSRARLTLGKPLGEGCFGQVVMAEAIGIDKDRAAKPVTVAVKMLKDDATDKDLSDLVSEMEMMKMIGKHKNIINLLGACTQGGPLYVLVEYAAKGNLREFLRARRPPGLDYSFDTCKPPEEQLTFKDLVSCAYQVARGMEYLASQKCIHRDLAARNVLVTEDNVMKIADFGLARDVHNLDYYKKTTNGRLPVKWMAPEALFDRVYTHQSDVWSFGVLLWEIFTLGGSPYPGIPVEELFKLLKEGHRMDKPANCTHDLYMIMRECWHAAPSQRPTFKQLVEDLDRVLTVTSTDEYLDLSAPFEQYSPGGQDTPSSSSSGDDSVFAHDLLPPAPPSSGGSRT
CSK(h), sequence (P41240 whole entry): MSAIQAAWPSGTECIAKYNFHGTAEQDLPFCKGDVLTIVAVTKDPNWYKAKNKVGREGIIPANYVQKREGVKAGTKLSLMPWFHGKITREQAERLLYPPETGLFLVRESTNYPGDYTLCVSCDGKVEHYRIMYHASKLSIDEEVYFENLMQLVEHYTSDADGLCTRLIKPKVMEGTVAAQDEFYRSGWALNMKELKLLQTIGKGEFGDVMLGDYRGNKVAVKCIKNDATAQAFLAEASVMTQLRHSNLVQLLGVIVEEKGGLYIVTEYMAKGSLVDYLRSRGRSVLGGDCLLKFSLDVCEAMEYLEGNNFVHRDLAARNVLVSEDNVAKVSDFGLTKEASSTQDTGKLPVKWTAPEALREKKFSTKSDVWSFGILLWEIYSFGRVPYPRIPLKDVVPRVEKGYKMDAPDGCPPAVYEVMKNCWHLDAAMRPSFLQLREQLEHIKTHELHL
CDK6/cyclinD3(h), sequence (Q00534 whole entry): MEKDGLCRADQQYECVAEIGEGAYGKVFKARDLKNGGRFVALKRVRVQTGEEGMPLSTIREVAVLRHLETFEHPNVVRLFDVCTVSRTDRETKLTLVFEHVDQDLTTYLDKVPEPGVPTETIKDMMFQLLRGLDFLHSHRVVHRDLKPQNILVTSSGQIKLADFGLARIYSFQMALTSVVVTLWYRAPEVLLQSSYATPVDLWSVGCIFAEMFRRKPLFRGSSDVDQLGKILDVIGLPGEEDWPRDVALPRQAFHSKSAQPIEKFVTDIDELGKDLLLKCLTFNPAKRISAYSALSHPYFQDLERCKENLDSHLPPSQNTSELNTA
CDK6/cyclinD3(h), sequence (P30281 whole entry partner): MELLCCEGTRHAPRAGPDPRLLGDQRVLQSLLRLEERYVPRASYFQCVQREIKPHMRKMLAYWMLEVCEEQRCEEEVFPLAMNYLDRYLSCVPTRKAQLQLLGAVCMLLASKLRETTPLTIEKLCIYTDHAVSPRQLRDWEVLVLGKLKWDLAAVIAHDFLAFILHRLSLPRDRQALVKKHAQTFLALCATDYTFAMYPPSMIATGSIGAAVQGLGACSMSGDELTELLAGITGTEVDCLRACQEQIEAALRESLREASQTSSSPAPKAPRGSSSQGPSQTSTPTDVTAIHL

With `O=C(Nc1cc(Nc2ncccc2-c2ncnc3[nH]cnc23)ccc1F)c1cc(C(F)(F)F)cc(C(F)(F)F)c1` [SJ-C1044, N-(5-(3-(9H-purin-6-yl)pyridin-2-ylamino)-2-fluorophenyl)-3,5-bis(trifluoromethyl)benzamide] the inhibition at 10 µM (FGFR3(h)) was 48%, the inhibition at 10 µM (Rsk1(r)) was -12% and the inhibition at 10 µM (Bmx(h)) was -1%. For the same molecule, the inhibition at 10 µM (PKCη(h)) was 3%, the inhibition at 10 µM (CSK(h)) was 3% and the “single oral dose toxicity” value [1] was “no respiratory effects or signs of toxicity”. The inhibition at 10 µM (CDK6/cyclinD3(h)) was -5%, the GI50 (SW620 (KRAS G12V)) was 628 nM and the IL-10 protein expression (IL-10) was 33 % CTL. The “ligand-dependent phosphorylation of CSF1R” value (CSF1R) was “significant inhibitory effects”, the “ligand-dependent phosphorylation of TIE2” value (TIE2) was “significant inhibitory effects” and the inhibition at 10 µM (CDK1/cyclinB(h)) was -10%. It also gave an inhibition at 10 µM (CDK7/cyclinH/MAT1(h)) of 10%, an inhibition at 10 µM (PKBβ(h)) of 1% and an IC50 (ARAF) greater than 10000 nM. The inhibition at 10 µM (ARAF; Table S1 no. 8) was 44%, the inhibition at 10 µM (ARAF; second A-Raf(h) entry, Table S1 no. 62) was -6% and the inhibition at 10 µM (EphB4(h)) was -6%. The inhibition at 10 µM (CDK2/cyclinA(h)) was -8% and the inhibition at 10 µM (PDK1(h)) was 0%.

Source: PMC10378394 (Current Issues in Molecular Biology, 2023)
